# Assay: Encapsulation rate of β-CD-MOF for active substances
# Format: physicochemical
# Details: carrier β-CD-MOF; loaded by impregnation, Examples 1-5
row,Encapsulation rate,Structure (SMILES)
1,82.19 ± 0.35%,"Oc1ccc(C=Cc2cc(O)cc(O)c2)cc1 [Resveratrol, resveratrol]"
2,76.40 ± 0.67%,"Cc1coc2c1C(=O)C(=O)c1c-2ccc2c1CCCC2(C)C [Tanshinone IIA, tanshinone IIA]"

# More lines, now with the values behind:
row,Structure (SMILES),Encapsulation rate
1,"O=C/C=C/c1ccccc1 [Cinnamic aldehyde, cinnamic aldehyde]",79.68 ± 0.28%
2,"COc1cc2c(=O)c(-c3ccc(O)cc3)coc2cc1O [Glycitein, glycitein]",76.34 ± 0.23%
3,"O=C1C[C@@H](c2ccc(O)cc2)Oc2cc(O)cc(O)c21 [Naringenin, naringenin]",70.23 ± 0.15%

# — patent US11744903B2, “Method for preparing cyclodextrin metal organic framework (CD-MOF) stable in aqueous phase” (Qilu University of Technology, priority 2022, dated 2023)
